Data reported in PMC8965344 (Frontiers in Microbiology, 2022).
Read-outs that look alike come from different tables or passages of the source.

Tests used:
[1] = test system: B. anthracis (Ames strain); design: species or system Bacillus anthracis; settings: in vivo
[2] = test system: B. anthracis (Ames strain); assay type: in vivo, Bacillus anthracis; settings: for survival rate: 17 days
human TLR2 = target: T1, human TLR2 (Homo sapiens, UniProt O60603+Q15399); assay: cell-based
T1 construct: expressed in transfected cells; host or cells: HEK293-NF-κB-Luc cells (clone LP58), stably transfected

B. anthracis = test system: B. anthracis; design: species or system Bacillus anthracis; settings: in vivo
S. aureus = settings: in vivo; cited from earlier work
Streptococcus pneumoniae = settings: in vivo; cited from earlier work
[3] = in vivo; cited from earlier work
[4] = test system: B. anthracis (Ames strain); assay type: in vivo, Bacillus anthracis; settings: 13 days
PA = settings: cited from earlier work

T1 sequence (O60603 21-784): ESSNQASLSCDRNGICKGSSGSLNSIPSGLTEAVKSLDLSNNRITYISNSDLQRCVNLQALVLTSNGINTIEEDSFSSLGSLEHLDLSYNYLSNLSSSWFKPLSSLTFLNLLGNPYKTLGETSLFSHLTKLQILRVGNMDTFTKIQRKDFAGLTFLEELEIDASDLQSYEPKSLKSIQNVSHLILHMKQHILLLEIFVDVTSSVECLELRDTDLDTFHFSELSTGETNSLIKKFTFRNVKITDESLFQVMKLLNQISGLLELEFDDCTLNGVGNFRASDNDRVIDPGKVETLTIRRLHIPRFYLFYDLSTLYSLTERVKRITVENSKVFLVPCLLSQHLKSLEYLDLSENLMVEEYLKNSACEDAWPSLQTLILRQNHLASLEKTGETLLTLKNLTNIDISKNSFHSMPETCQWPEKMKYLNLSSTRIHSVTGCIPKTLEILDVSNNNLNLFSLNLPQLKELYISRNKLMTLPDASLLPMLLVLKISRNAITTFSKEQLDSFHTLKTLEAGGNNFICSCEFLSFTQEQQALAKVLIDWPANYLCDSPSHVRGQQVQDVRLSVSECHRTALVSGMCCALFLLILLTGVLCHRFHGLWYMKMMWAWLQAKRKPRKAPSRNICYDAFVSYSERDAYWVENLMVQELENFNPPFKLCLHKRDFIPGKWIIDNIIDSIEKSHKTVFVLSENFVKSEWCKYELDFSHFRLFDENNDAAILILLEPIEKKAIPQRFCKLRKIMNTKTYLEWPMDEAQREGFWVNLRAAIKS
T1 sequence (Q15399 25-786): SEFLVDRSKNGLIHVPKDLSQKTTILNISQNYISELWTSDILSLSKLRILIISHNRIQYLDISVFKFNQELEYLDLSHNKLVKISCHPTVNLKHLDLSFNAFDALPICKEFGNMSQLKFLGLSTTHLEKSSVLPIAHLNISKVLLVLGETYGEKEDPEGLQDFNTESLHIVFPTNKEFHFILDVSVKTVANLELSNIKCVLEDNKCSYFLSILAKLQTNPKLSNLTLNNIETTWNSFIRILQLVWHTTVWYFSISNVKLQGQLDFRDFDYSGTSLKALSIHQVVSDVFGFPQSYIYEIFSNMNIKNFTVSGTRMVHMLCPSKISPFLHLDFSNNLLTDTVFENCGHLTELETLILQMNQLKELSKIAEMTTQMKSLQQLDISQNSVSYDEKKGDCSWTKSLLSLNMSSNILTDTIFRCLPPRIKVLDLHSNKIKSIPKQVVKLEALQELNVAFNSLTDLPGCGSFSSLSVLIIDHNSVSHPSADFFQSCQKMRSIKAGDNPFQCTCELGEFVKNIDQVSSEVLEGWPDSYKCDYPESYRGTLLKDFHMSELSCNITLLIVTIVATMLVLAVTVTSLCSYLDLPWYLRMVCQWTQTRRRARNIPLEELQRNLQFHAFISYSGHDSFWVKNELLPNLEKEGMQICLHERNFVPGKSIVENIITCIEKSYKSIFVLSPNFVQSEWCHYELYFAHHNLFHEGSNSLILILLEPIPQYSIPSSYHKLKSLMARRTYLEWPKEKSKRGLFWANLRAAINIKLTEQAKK

Pam3CSK4
survival rate [1]: 40% | survival rate [2]: 60% | protection of mice from lethal challenge of B. anthracis ([2]; in vivo): the best at protecting mice from lethal challenge of B. anthracis | induction of NF-kB activity (human TLR2): dose dependent induction of NF-kB activity | survival rate after re-challenge (B. anthracis): 25% | induction of IFN-γ, TNF-α and IL-6 production (human PBMCs): able to induce aforementioned cytokine productions with varying potency

Pam3Cys
protection from S. aureus endophthalmitis (S. aureus): protected mice from S. aureus endophthalmitis, preserved retinal structural integrity, and maintained visual function

Pam2CSK4
survival rate [2]: 20% | induction of NF-kB activity (human TLR2): dose dependent induction of NF-kB activity | induction of IFN-γ, TNF-α and IL-6 production (human PBMCs): able to induce aforementioned cytokine productions with varying potency

ODN1826
survival rate [2]: 0%

MALP-2
pulmonary bacterial burden in mice (Streptococcus pneumoniae): reduced pulmonary bacterial burden in mice

Poly (I:C)
survival rate [2]: 20%

CCc1nc2c(N)nc3ccccc3c2n1CCCCNS(C)(=O)=O [PF4878691]
adverse effects in patients [3]: flu-like symptoms, lymphopenia and hypotension

O=C(O)c1cn(C2CC2)c2cc(N3CCNCC3)c(F)cc2c1=O [ciprofloxacin]
survival rate [4]: 50%

lipopolysaccharide [LPS]
induction of NF-kB activity (human TLR2): dose dependent induction of NF-kB activity | induction of IFN-γ, TNF-α and IL-6 production (human PBMCs): able to induce aforementioned cytokine productions with varying potency

CCCCCCCCCCCCCCCC(=O)N[C@@H](CSC[C@@H](COC(=O)CCCCCCCCCCC)OC(=O)CCCCCCCCCCC)C(=O)N[C@@H](C)C(=O)N[C@H](CCC(=O)O)C(N)=O [DA-98-WW07, (4R,7S,10R,14R)-4-carbamoyl-14-(dodecanoyloxy)-7-methyl-6,9,17-trioxo-10-palmitamido-16-oxa-12-thia-5,8-diazaoctacosanoic acid]
EC50 (human TLR2): 1040 ± 1160 nM | efficacy (% Eff), NF-κB-Luciferase (human TLR2): 101.36%

B1: obiltoxaximab (antibody, chains of the INN, looked up, V domains shown)
VH: QVQLQQSGPELKKPGASVKVSCKDSGYAFSSSWMNWVRQAPGQGLEWIGRIYPGDGDTNYNGKFQGRVTITADKSSSTAYMELSSLRSEDTAVYFCARSGLLRYAMDYWGQGTLVTVSS
VL: DIQMTQSPSSLSASVGDRVTITCRASQDIRNYLNWYQQKPGKAVKLLIYYTSRLLPGVPSRFSGSGSGTDYSLTISSQEQEDIGTYFCQQGNTLPWTFGQGTKVEIR
binding to PA and block of binding to anthrax toxin receptors (PA): bind to PA and block its binding to anthrax toxin receptors
